Measurements reported in patent US9889093B2, “Application of andrographolide in the preparation of a pharmaceutical for treatment of inflammatory bowel disease, andrographolide enteric targeting micropellet, and method for preparation thereof” (TASLY PHARMACEUTICAL GROUP CO., LTD., priority 2013, dated 2018).
≈ marks a conversion by molar mass, not a printed value. Marks after values point to notes of the source that are not given here.

How the values were obtained:
[1] = system: TNBS-induced colitis mice; test: TNBS-induced UC (colitis) mouse model; type: in vivo; conditions: for Body weight / Colon weight: oral twice daily; for Body weight / Colon weight / Colon scores / Colon indices / Decrease rate of colon specific weight: 7 days; for Colon scores: histopathological score 0-4; for Colon indices: percentage of colon weight to body weight; for Decrease rate of colon specific weight: vs model control group
Description: 5% (w/v) TNBS solution was diluted with double-distilled water and mixed with 50% (v/v) ethanol in equal volume to have 1.5% (w/v) TNBS solution. In the model control group, the mice were anesthetized with 1 wt % pentobarbital solution at a dose of 0.05 ml/10 g body weight. After being anesthetized, the mice were administrated with 1.5% (w/v) TNBS solution at a dose of 0.1 ml/mouse by gently inserting stomach perfusion device to about 3 cm depth via anus and arriving at the colon, and the IBD was induced. In the saline group, the saline was gently injected into the colon at a dose of 0.1 ml/mouse. In the normal control group, 50% (v/v) ethanol was gently injected into the colon at a dose of 0.1 ml mouse.
After one week adaptive feeding, all animals were randomly divided into 5 groups according to body weight, 10 mice in one group: the normal control group, the model control group, the andrographolide low-dose group (20 mg/kg/d), the andrographolide high-dose group (40 mg/kg/d) and the positive control group (Sulfasalazine group, 300 mg/kg/d). Two hours after making model, the animals in each treating groups were orally administrated twice daily with the andrographolide and once daily in the positive control group. After successive administration for 7 days, the abdomen was opened 24 hours after the last administration to observe adhesion degree between the colon and other organs. The colon was separated and weighed.
1. Body weight: after making model, body weight was measured every day to observe the change in the animals.
2. Evaluation of inflammation: the abdomen was opened 24 hours after the last administration to observe adhesion degree between the colon and other organs. Every segment of the colon was taken out and weighed to calculate the percentage of the colon weight to body weight, as the colon index. The formula was presented as follows: Decrease rate of colon specific weight=(colon index of the model control group−colon index of the treatment group)/colon index of the model control group×100%
3. Histopathological examination: a part of the colon was taken to prepare the pathological section, and the standard for score was as follows: • 0 score, no inflammatory symptoms; • 1 score, low-grade inflammation with no structure change; • 2 score, low-grade leukocyte infiltration; • 3 score, high-grade leukocyte infiltration, high vascular density, crypt extension, thickened colon wall and superficial ulcer • 4 score, high-grade leukocyte infiltrating exceeding to mucous layer, crypt extension, decrease of goblet cell, high vascular density, thickened colon wall and extensive ulcer
SPSS11.5 software was used for analysis and the data were expressed as x±S. Variance analysis was used for comparison of significant difference among groups.

[2] = system: DSS-induced UC mice; test: DSS-induced UC mouse model, disease active index; type: in vivo
From the text: 4 Dose Designing and Grouping • 4.1 Grouping: quarantine-qualified 84 mice were randomly divided into 6 groups: the model control group, the positive control group, the tested drug low-dose intragastric group, the tested drug high-dose intragastric group, the tested drug low-dose intracolonical group and the tested drug high-dose intracolonical group, 14 mice per group. All animals drank 5% DSS solution daily for consecutive 14 days to establish UC model. Animals were administrated with the drug for treatment on the 2nd day after being given 5% DSS drinking water. • 4.2 Dose: in this study, dose of administration of the mice in all groups was designed on the basis of client's requirements, and the same doses were adopted in both intragastric and intracolonical groups. Animals were not treated in the model control group, the positive control group (mesalazine enteric tablet, 227.5 mg·kg^−1·d^−1), the andrographolide low-dose intragastric group (60 mg·kg^1·d^−1), the andrographolide high-dose intragastric group (180 mg·kg^−1·d^−1), the andrographolide low-dose intracolonical group (60 mg·kg^−1·d^−1) and the andrographolide high-dose intracolonical group (180 mg·kg^−1·d^−1).
5 Method • 5.1 Method of making UC model: all animals drank 5% DSS solution daily for consecutive 14 days. • 5.2 Method of administration: on the 2nd day after modeling, the mice were treated intragastrically or intracolonically with the drug at 1 mL/100 g once a day for consecutive 14 days. • 5.3 Method for sampling in experiment: 2 hours after the last administration, the mice were killed by cervical vertebra dislocation and abdomen was opened to separate the colon. Along mesenteric side, the intestinal lumen was cut and rinsed with 4° C. normal saline and spread on a plastic plate. • 5.4 Method for evaluating disease active index (DAI): the disease active index was assessed at the 7th and 14th day after administration. The method was presented together with the following three parameters: the body weight loss percentages (unchanged BW: 0 score, 1˜5: 1 score, 5˜10: 2 score, 10˜15: 3 score, more than 15: 4 score), stool viscosity (normal stool: 0 score, loosen stool: 2 score, diarrhea: 4 score) and blood stool (normal stool: 0 score, occult blood stool: 2 score and positive blood stool: 4 score). Total score of three parameters was divided by 3 to give the DAI, namely DAI=(BW index score+stool character score+stool blood score)/3.
6 Observation Indices • 6.1 Observation: the general clinical symptoms in the mice were observed daily from the beginning to the end of the experiment, and the stool, mental status and death status were recorded. • 6.2 Body weight: BW was recorded weekly from the beginning to the end of the experiment. • 6.3 Calculation of DAI: DAI was calculated on the 7th and 14th day after administration so as to assess disease activity. • 6.4 The colon mucosal tissue 8˜10 cm away from the anus was sampled, embedded with paraffin and stained with routine HE. Colon mucosal injury was observed by a microscope and histological injury was scored based on the following indices: ulcer inflammatory granuloma, fibrosis and pathological degree.
Data were expressed as mean+standard deviation (x±S). All numerical variables were analyzed with SPSS13.0 software by one-way ANOVA. T-test analysis was used for inter-group comparison.

[3] = Solubility of the drug in DMSO and fish farm water; type: physicochemical
[4] = andrographolide high-dose 40 mg/kg/d
[5] = andrographolide low-dose 20 mg/kg/d
[6] = andrographolide high-dose 180 mg/kg, intracolonical
[7] = andrographolide high-dose 180 mg/kg, intragastric
[8] = andrographolide low-dose 60 mg/kg, intracolonical
[9] = andrographolide low-dose 60 mg/kg, intragastric

## C=C1CC[C@@H]2[C@](C)(CO)[C@H](O)CC[C@@]2(C)[C@@H]1C/C=C1/C(=O)OC[C@H]1O [Andrographolide]
[1]; FIG. 1, treated groups
  Body weight increase compared with the model control group: increased faster than that in the model control group
[1]; [4]
  Body weight: 20.95 ± 1.09 g
  Colon weight: 0.29 ± 0.09 g
  Colon scores: 1.8**
  Colon indices: 1.38 ± 0.46
  Decrease rate of colon specific weight: 58.96%
[1]; [5]
  Body weight: 19.95 ± 2.05 g
  Colon weight: 0.43 ± 0.12 g
  Colon scores: 3.2
  Colon indices: 2.24 ± 0.90
  Decrease rate of colon specific weight: 33.20%
[1]; treated groups, after 7 days
  Intestinal elasticity compared with the model control group: higher than that in the model control group
[2]; [6]
  DAI on the 7th day: 1.36 ± 0.64
  DAI on the 14th day: 1.35 ± 0.18
[2]; [7]
  DAI on the 7th day: 1.43 ± 0.38
  DAI on the 14th day: 1.64 ± 0.83
[2]; [8]
  DAI on the 7th day: 1.67 ± 0.65
  DAI on the 14th day: 1.77 ± 0.95
[2]; [9]
  DAI on the 7th day: 1.63 ± 0.99
  DAI on the 14th day: 2.01 ± 0.80
[3]; DMSO, organic solvent or mixture
  solubility: ~250 mg/mL (≈ 713 mM)
[3]; fish farm water
  Concentration at which the drug began to precipitate: ≥ 500 µg/mL
